Test results taken from ChEMBL document CHEMBL1201862, “PubChem BioAssay data set” (2004).
“And” between values parts separate entries of the source, which are not always exact repeats. Identical values can stand only once. The source made the active and inactive calls.

How the values were obtained:
[1] = luciferase reporter signal suppression in cells – H4 neuroglioma cells, luminescence, dose response (AID 1990); type: functional, cell-based
[2] = alpha-synuclein stem-loop luciferase translation blockers – H4 neuroglioma cells, luminescence, confirmation (AID 1988); type: functional, cell-based
[3] = Luminescence Cell-Based Dose Response HTS to Identify Inhibitors of 5'UTR Stem-Loop Driven Prion Protein mRNA Translation in H4 Neuroglioblastoma Cells. [Related pubchem assays: 1827 (Project Summary), 1813 (Primary HTS)]; type: functional
[4] = biological target: FAD-linked sulfhydryl oxidase ALR (Homo sapiens, UniProt P55789); assay: ALR-catalysed DTT oxidation blockers – biochemical, H2O2 detection, luminescence, cherry-pick, dose response (AID 493248)
Sequence of FAD-linked sulfhydryl oxidase ALR (P55789 whole entry): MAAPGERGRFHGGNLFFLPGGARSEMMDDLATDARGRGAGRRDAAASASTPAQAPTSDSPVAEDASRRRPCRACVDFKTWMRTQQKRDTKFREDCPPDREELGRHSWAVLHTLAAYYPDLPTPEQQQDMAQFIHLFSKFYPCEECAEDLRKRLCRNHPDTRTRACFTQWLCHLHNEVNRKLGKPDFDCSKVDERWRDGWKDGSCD

[5] = viability of uninfected HEp-2 cells – cell-based, HTS, cytotoxicity control for RSV inhibitor project, dose response (AID 2410); type: functional; conditions: human respiratory syncytial virus
Large T antigen = Large T antigen (Simian virus 40, UniProt P03070); type: functional, Betapolyomavirus macacae;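 further: Confirmatory-stage PubChem screen for compounds that inhibit SV40 T antigen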
Sequence of Large T antigen (P03070 whole entry): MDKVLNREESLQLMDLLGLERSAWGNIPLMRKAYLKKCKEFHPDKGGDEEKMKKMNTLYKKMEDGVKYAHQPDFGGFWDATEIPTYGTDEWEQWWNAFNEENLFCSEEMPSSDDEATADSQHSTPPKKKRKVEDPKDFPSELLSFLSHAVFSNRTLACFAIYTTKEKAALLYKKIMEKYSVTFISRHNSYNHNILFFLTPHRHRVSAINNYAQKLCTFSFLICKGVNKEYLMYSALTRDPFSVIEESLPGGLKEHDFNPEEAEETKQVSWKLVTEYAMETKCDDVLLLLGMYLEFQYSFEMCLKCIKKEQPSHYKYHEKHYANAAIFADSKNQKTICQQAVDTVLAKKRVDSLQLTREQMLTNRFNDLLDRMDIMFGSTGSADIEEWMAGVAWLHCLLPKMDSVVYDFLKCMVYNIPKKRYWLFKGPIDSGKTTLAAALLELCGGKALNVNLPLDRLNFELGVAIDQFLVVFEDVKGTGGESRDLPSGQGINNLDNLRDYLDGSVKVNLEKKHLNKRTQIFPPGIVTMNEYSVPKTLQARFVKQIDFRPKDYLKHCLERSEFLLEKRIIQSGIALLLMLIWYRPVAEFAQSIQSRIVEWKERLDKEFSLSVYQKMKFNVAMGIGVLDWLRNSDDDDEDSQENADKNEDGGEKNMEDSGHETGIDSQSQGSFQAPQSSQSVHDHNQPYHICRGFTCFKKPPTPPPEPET

H9c2 = assay: cells; type: functional, cell-based; conditions: Rattus norvegicus, H9c2, Myocardium
[6] = viability of PTEN-deleted HCT116 cells – cell-based, HCT116 PTEN knockout, dose response (AID 1047); type: functional;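 further: HCT116 colon tumor cells with PTEN knocked out; cells exposed to compound for 60 hours before readout; potency for loss of cell viability measured by luminescence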
[7] = viability of HCT116 lacking mutant beta-catenin – cell-based, human colon tumor, dose response (AID 1045); type: functional;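 further: HCT116 colon tumor cells with beta catenin knocked out; cells exposed to compound for 60 hours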
[8] = Trypanosoma cruzi growth suppression in host cells – NIH3T3 host cells, beta-gal luminescence, confirmation (AID 2044); type: functional, cell-based;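 further: intracellular parasites grown in NIH/3T3 mouse fibroblasts as host cells; luminescent beta-galactosidase reporter signal from transgenic T. cruzi replicating inside host cells; inhibitors lower the luminescence signal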
[9] = NIH3T3 cell viability loss – ATP luminescence, mouse fibroblasts, counter-screen, dose response (AID 2010); type: functional, cell-based;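 further: cells exposed to compound for about 90 hours before reading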
[10] = biological target: T1, Rac GTPase-activating protein 1 (Homo sapiens, UniProt Q9H0H5); assay: blockers of MgcRacGAP-driven Rac1 GTP hydrolysis – biochemical, ADP Hunter fluorescence, primary and confirmatory, confirmation (AID 624330); type: functional
T1 sequence (Q9H0H5 whole entry): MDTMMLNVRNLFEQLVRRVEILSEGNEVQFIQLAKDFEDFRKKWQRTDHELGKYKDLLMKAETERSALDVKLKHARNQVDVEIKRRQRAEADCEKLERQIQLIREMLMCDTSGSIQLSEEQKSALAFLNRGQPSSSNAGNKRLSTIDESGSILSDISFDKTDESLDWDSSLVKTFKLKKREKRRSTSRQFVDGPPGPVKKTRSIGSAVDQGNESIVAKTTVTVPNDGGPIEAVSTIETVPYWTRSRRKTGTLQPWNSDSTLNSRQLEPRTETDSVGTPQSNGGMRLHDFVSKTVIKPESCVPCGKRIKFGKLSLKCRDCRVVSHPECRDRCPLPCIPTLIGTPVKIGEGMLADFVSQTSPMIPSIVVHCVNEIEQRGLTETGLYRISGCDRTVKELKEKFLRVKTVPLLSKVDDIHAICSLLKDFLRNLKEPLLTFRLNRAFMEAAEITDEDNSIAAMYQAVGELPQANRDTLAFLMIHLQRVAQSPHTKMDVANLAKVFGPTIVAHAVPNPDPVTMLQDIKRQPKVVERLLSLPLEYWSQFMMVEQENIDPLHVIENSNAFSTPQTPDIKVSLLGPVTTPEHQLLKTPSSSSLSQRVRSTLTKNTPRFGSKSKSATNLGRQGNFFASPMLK

[11] = biological target: T2, Corticotropin-releasing factor receptor 2/Corticotropin-releasing factor-binding protein (Homo sapiens, UniProt P24387+Q13324); assay: activators of CRF receptor 2 with binding protein – uHTS hits, confirmation (AID 602473); type: functional; conditions: read-out: EC50_Mean
T2 sequence (Q13324 whole entry): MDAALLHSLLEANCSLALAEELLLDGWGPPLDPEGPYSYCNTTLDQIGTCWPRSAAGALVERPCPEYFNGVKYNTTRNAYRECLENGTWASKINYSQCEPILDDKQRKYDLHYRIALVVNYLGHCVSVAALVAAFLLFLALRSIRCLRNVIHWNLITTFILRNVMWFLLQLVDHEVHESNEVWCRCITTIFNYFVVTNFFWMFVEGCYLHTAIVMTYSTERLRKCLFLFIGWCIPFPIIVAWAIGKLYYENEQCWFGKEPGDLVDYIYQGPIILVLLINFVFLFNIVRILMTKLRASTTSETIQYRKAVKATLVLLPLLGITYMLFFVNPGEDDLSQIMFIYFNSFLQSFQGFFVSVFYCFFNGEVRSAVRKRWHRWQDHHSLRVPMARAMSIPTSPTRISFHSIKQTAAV
T2 sequence (P24387 whole entry): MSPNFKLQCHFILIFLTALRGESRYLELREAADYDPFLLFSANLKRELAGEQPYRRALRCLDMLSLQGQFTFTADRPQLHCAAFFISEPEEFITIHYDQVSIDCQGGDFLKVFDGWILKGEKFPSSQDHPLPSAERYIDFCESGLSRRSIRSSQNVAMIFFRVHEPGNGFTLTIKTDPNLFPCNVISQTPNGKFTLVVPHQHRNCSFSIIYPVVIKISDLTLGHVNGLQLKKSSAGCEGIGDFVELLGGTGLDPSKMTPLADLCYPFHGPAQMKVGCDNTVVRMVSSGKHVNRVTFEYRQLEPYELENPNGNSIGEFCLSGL

Cytochrome P450 2D6 = Cytochrome P450 2D6 (Homo sapiens, UniProt P10635);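 further: CYP2D6 member of a cytochrome P450 panel assay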
Sequence of Cytochrome P450 2D6 (P10635 whole entry): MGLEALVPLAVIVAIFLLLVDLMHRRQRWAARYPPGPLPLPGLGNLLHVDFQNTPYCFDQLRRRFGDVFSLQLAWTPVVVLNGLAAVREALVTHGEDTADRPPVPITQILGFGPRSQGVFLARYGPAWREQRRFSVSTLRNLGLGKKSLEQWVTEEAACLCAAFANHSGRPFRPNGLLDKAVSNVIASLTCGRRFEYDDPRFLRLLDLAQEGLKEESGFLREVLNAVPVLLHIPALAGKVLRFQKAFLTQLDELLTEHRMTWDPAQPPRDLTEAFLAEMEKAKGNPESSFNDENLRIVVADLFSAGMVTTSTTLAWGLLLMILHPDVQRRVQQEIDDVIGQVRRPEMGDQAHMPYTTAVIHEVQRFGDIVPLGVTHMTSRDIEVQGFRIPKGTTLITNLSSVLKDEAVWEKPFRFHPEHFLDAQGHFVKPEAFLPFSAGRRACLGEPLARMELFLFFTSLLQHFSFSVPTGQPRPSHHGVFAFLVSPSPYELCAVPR

[12] = biological target: T3, Heat shock factor protein 1 (Mus musculus, UniProt P38532); assay: enhancement of HSF1-driven luciferase signal – cell-based, NIH3T3, luminescence, dose retest, confirmation (AID 435004); type: functional;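 further: stress induced by proteasome inhibitor MG132 added 30 min after compound; luciferase reporter driven by HSF1 response element in NIH3T3 cells; actives raise luminescence as potentiators of the MG132 stress response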
T3 sequence (P38532 whole entry): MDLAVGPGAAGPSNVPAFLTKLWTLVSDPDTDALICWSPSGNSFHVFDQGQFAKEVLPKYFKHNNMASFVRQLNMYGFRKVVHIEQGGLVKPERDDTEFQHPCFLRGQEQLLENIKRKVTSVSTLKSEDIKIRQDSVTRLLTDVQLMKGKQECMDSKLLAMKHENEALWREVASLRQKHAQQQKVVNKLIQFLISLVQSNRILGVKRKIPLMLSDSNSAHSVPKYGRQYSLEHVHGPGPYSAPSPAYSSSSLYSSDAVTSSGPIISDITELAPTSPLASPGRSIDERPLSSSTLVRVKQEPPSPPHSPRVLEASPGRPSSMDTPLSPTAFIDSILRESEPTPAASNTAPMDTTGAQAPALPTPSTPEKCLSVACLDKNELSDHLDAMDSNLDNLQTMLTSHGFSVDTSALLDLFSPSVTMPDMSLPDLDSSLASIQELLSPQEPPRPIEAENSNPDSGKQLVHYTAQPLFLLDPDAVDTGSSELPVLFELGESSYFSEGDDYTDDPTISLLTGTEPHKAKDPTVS

[13] = reduction of Shn3 3'UTR-driven luciferase in osteoblasts – cell-based, Clone20 osteoblasts, firefly luciferase, cherry-picked, dose response (AID 624132); type: functional;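 further: firefly luciferase luminescence from reporter carrying the Shn3 3'UTR in osteoblasts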

## O=S(=O)(c1ccc(Br)cc1)N1CCC(c2nc3ccccc3[nH]2)CC1
[1]
  EC50: 11.9 µM (active)
[2]
  EC50: > 120 µM (not active)

## COc1ccc(CCNS(=O)(=O)c2cn(C)cn2)cc1OC
[1]
  EC50: > 120 µM (not active)
[3]
  EC50: > 120 µM (not active)
[2]
  EC50: > 120 µM (not active)

## O=C(NCCSc1c[nH]c2ccccc12)C1CC1
[4]
  AC50: 8.01 µM (active)

## CCCCNC(=O)c1onc(CSc2ccc(C)c(C)c2)c1C(=O)O
[4]
  AC50: 8.26 µM (active)

## O=C(C[N+]1=C2SC=C(c3ccccc3)N2CC1)c1ccc(Br)cc1
[4]
  AC50: 0.221 µM (active)

## CN(C(=O)COC(=O)c1c2c(nc3ccccc13)/C(=C/c1cccc([N+](=O)[O-])c1)CCC2)C1CCS(=O)(=O)C1 (configuration not stated)
[1]
  EC50: 11.6 µM (active)
[3]
  EC50: > 120 µM (not active)
[2]
  EC50: 11 µM (active)

## O=S(=O)(NNc1ccc(F)cc1F)c1cccc(Cl)c1
[4]
  AC50: 1.35 µM (active)

## CCC1Nc2ncnc(N3CCN(c4ccccc4)CC3)c2N(Cc2ccc(Cl)cc2)C1=O (configuration not stated)
[5]
  CC50: 16.6 µM (active)

## COc1ccc(-c2c(-c3ccsc3)oc(=O)c3cc(OC)c(OC)cc23)cc1
[5]
  CC50: 47.2 µM (active)

## CC(=O)Oc1ccc(C(=O)OCC(=O)c2c(N)n(C)c(=O)n(C)c2=O)cc1OC(C)=O
Large T antigen
  IC50: 8.56 µM (active)
H9c2
  IC50: 6.29 µM (active)

## CCN(CC)S(=O)(=O)c1cc(C(=O)Nc2cc(Cl)ccc2N2CCN(C)CC2)ccc1Cl
[6]
  EC50: 13.3 µM (active)
[7]
  EC50: 15.8 µM (active)

## Cc1ccc(C23CC4CC(CC(NC(=O)NCCN(C)C)(C4)C2)C3)cc1
[8]
  EC50: 948 nM (active)
[6]
  EC50: 20.9 µM (active)
[9]
  EC50: > 60 µM (not active)
[7]
  EC50: 17.9 µM (active)

## CN(C)Cc1ccccc1Sc1ccc2c(c1)CCCC2
[1]
  EC50: > 120 µM (not active)
[3]
  EC50: 32.4 µM (active)
[2]
  EC50: > 120 µM (not active)

## Brc1ccccc1OCCCOc1cccc2cccnc12
[5]
  CC50: 26.3 µM (active)

## CN(C)c1ccc(NS(=O)(=O)c2ccc(Cl)cc2)cc1
Large T antigen
  IC50: 11.7 µM (active)
[10]
  IC50: 30.6 µM (active)

## CCOc1ccc(C2C=C(c3ccc(C)cc3)Nc3nnnn32)cc1 (configuration not stated)
[11]
  EC50: > 53 µM (inactive)

## Cc1cccc(N2CCN(C(=O)CCCn3c(=S)[nH]c4cc5c(cc4c3=O)OCO5)CC2)c1C
[5]
  CC50: 23.4 µM (active)
[8]
  EC50: 389 nM (active)
[9]
  EC50: > 30 µM (not active)
Cytochrome P450 2D6
  AC50: 10 µM (inconclusive)

## COc1ccccc1NC(=O)Nc1ncccc1C
[4]
  AC50: 0.903 µM (active)

## CC(=O)N1CCC2(CC1)NC(=O)N(c1ccccc1)N2
[12]
  EC50: 136 µM (active)
[4]
  AC50: 5 µM (active)

## CCC(C)c1ccc(NC(S)=NCCn2cc(Br)cn2)cc1 (configuration not stated)
[1]
  EC50: > 120 µM (not active)
[3]
  EC50: > 120 µM (not active)
[2]
  EC50: > 120 µM (not active)

## Cc1ccnc(-n2c(C)cc(/C=C3\C(=O)NC(=S)N(C)C3=O)c2C)c1
[6]
  EC50: 95.3 µM (active)
[7]
  EC50: 65.8 µM (active)

## CCc1c(C)nc(Nc2nc(C)c3ccc(OC)cc3n2)nc1O
H9c2
  IC50: > 79 µM (inactive)

## Cc1ccc2nc(NC(=O)[C@H](C)N3C(=O)C4CC=CCC4C3=O)sc2c1 (some centres not stated)
[1]
  EC50: 0.556 µM (inconclusive)
[3]
  EC50: > 120 µM (not active)

## O=C(NCCCn1ccnc1)c1nn2c(C(F)(F)F)cc(-c3ccc(Br)cc3)nc2c1Cl
[6]
  EC50: 16.8 µM (active)
[7]
  EC50: 33.2 µM (active)

## COc1ccc(C(=O)[C@H]2[C@H]3C(=O)N(c4ccccc4)C(=O)[C@H]3C3C=CC=NN32)cc1 (some centres not stated)
[1]
  EC50: > 120 µM (not active)
[3]
  EC50: > 120 µM (not active)
[2]
  EC50: > 120 µM (not active)

## Cc1cccc2c(=O)cc(C)n(CC(N)=O)c12
[5]
  CC50: 24.6 µM (active)

## Cc1cc(C)nc(SCc2cccc(C(=O)O)c2)n1
[1]
  EC50: 17.5 µM (active)
[2]
  EC50: 28.8 µM (active)

## C(=C\c1nnc2c3ccccc3ncn12)/c1ccccc1
[3]
  EC50: 7.36 µM (active)

## Brc1ccc(CN2CCN(c3ccccc3)CC2)o1
[4]
  AC50: 2.03 µM (active)

## CCN(CC(=O)Nc1ccc(OC)cc1)C(=O)c1cc(-c2cccs2)nn1-c1ccccc1
H9c2
  IC50: 36.6 µM (inactive)

## FC(F)(F)c1cccc(-c2ccn3ncnc3n2)c1
[5]
  CC50: 35.5 µM (active)

## O=C(Nc1ccccc1)c1ccc(-c2ccc(Br)cc2)o1
[5]
  CC50: 16.9 µM (active)

## Cc1ccc[n+](CC(=O)Nc2ccc(N(C)C)cc2)c1
[4]
  AC50: 2.2 µM (active)
[10]
  IC50: 113 µM (active)

## Cc1ccc(OC(=O)CCC(=O)Oc2ccc(C)cc2C)c(C)c1
[13]
  AC50: 3.51 µM (active)

## Cc1ccc(C)c(S(=O)(=O)Nc2ccc(-n3cnnn3)cc2)c1
[13]
  AC50: > 70 µM (inactive)

## CN1CCN(/N=C/c2nc(-c3cccc([N+](=O)[O-])c3)n3ccccc23)CC1
[11]
  EC50: > 53 µM (inactive)

## Oc1ccc(N/C(S)=N/c2ccccc2)cc1
Large T antigen
  IC50: 5.61 µM (active) and 8.33 µM (active)
[12]
  EC50: > 260 µM (inactive)
[10]
  IC50: 32.9 µM (active)

## COc1cc(/C=N/NC(=O)C(C)n2nnc3ccccc32)ccc1O (configuration not stated)
Large T antigen
  IC50: 19.8 µM (active)
[4]
  AC50: 0.332 µM (active)
[10]
  IC50: 25.5 µM (active)

## Sc1nnc(-c2[nH]nc3c2CCC3)n1/N=C/C=C/c1ccco1
Large T antigen
  IC50: 18.1 µM (active)

## Cc1cc(/C=N/NC(=O)c2c(Br)cnn2C)c(C)n1-c1cccc(Br)c1
[5]
  CC50: 41.5 µM (active)

## C=CCOc1ccc(/C=N/NC(=O)c2cc3c(OC)cc(OC)cc3[nH]2)cc1
[5]
  CC50: 27.4 µM (active)

## OC1=C(/C=N/c2ccc(O)cc2)CCCC1
Large T antigen
  IC50: 6.66 µM (active)
[10]
  IC50: 12.5 µM (active)

## Cc1ccc(/N=C2\C(Cl)=C(O)OC2OC(C)C)c(C)c1 (configuration not stated)
[1]
  EC50: > 120 µM (not active)
[3]
  EC50: 24.8 µM (active)
[2]
  EC50: > 120 µM (not active)

## O=c1[nH]nc(Cc2ccccc2)c2ccccc12
H9c2
  IC50: > 79 µM (inactive)
